From publication PMC8069166, “Identification of a Prenyl Chalcone as a Competitive Lipoxygenase Inhibitor: Screening, Biochemical Evaluation and Molecular Modeling Studies” (Molecules, 2021)
“Also recorded” adds a separate entry of the source. Where two headings read alike, the source gives them in different places. Values belong to the molecule of their own block, whether it stands above or below them.

Columns and labels:
[1] = target: T1, soybean lipoxygenase-1 (LOX-1) (Glycine max, UniProt P08170); test: LOX-1 inhibition, spectrophotometric assay of conjugated diene formed by linoleic acid oxidation; assay type: biochemical
T1 construct: purchased Sigma-Aldrich, Brazil
T1 sequence (P08170 1-839): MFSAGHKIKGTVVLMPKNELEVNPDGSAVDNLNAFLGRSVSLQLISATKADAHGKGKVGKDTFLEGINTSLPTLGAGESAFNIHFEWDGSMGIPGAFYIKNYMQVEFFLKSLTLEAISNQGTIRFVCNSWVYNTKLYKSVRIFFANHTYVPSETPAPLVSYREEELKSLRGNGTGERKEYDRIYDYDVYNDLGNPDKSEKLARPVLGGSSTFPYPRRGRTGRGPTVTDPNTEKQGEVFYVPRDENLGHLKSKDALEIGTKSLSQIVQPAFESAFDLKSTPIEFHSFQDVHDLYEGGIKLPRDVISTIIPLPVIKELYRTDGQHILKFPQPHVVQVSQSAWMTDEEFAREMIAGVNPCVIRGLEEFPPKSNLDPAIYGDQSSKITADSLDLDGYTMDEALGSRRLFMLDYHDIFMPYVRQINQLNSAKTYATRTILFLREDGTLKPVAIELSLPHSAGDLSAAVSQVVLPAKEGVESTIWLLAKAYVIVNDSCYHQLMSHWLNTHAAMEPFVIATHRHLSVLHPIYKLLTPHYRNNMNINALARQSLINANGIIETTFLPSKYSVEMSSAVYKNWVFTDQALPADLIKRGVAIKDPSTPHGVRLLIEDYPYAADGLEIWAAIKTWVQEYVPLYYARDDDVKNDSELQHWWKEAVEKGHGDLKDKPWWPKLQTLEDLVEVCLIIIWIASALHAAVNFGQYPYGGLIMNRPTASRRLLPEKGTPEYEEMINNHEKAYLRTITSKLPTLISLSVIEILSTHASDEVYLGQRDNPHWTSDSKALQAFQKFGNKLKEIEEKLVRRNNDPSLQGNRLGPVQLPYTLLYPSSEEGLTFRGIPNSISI
Description: For the in vitro screening to identify the inhibitors of the enzymatic activity of LOX-1, a spectrophotometric assay was employed in order to measure the conjugated diene formed by linoleic acid oxidation. Soybean LOX-1, which converts linoleic acid to 13-hydroperoxylinoleic acid, is inhibited by NSAIDs in a qualitatively similar way to that of the rat mast cell line 5-LOX, and it may be used as a reliable screening target for this activity. The screening was performed with compounds from Brazilian biodiversity (NuBBEDB) and synthetic derivatives previously synthesized by using natural products as models. In this context, a variety of natural products were evaluated, such as triterpenes, chalcones, casearins, alkaloids, guanidines, and flavonoids.
(§1) The ability of chalcones 1–6 to act as LOX-1 inhibitors was evaluated according to a method from Ha et al. (2004). Initially, 2.910 mL Tris-HCl buffer ([…] (pH 8.0), Sigma-Aldrich, Brazil) was added to a quartz cuvette, followed by the addition of 25 μL LOX-1 (final concentration 1 μM, Sigma-Aldrich, Brazil) and 10 μL of the compounds tested (the final concentration ranged from 1 to 20 μM). The solution was incubated for 5 min at 25 °C. The reaction was started with the addition of linoleic acid (55 μL, 1 mM, Sigma-Aldrich, Brazil), and the LOX-1 activity was monitored at λ = 221 nm, pH 8.0, and 25 °C by an absorbance spectrophotometer in UV-Vis (Perkin Elmer Lambda 22, Waltham, MA, USA). For the determination of KM, varying substrate concentrations were used (linoleic acid, 13.7–91.7 µM) and 1 µM LOX-1. […] The spectrophotometric measurements at λ = 221 nm are associated with the conjugated double bonds formed from the linoleic acid substrate.

LOX-1 [2] = target: T2, LOX-1 (Glycine max, UniProt P08170); test: Enzyme kinetics, mechanism of LOX-1 inhibition; assay type: biochemical, soybean (Glycine max)
T2 sequence (P08170 1-839): T1 sequence (P08170 1-839)
Description: as §1

LOX-1 [3] = target: T2, LOX-1; test: Oxygen consumption by the catalytic activity of LOX (polarography, O2-selective electrode); assay type: biochemical, soybean (Glycine max); conditions: compound at 10 µM, 25 °C
Description: A polarography-based assay was used to evaluate the rate of the oxygen consumption during LOX-1 inhibition, during which oxygen consumption is associated with the formation of a hydroperoxyl group [28]. In order to evaluate the decrease in oxygen consumption upon LOX-1 inhibition by the prenyl chalcone 6, an O2-selective electrode coupled to an oxygen monitoring probe was employed. […] The oxygen consumption was monitored using an O2-selective electrode coupled to a YSI 5300 Oxygen Monitor (Yellow Springs, OH, USA) at 25 °C. The reactions were initiated by adding O2 (100 μM), followed by the addition of LOX (20 nM) in 0.1 M Phosphate buffered saline (PBS), with pH 7.4 at 25 °C and the compounds being tested [32].

[4] = cited from earlier work
[5] = LOX-1 1 µM, linoleic acid substrate, pH 8.0, 25 °C, mean and standard deviation of three independent experiments, read-out: IC50 for the inhibition of lipoxygenase-1

Structure (SMILES): O=C(/C=C/c1ccccc1O)c1ccccc1 [Compound 1]
IC50 [1, 5]: > 50 µM

Structure (SMILES): O=C(/C=C/c1cccc(O)c1)c1ccccc1 [Compound 2]
IC50 [1, 5]: > 50 µM

Structure (SMILES): O=C(/C=C/c1ccc(O)cc1)c1ccccc1 [Compound 3, (E)-4-hydroxychalcone]
IC50 [1]: > 50 µM

Structure (SMILES): CC(C)=CCOc1ccccc1/C=C/C(=O)c1ccccc1 [Compound 4, 2-O-prenyl chalcone]
IC50 [1, 5]: > 50 µM

Structure (SMILES): CC(C)=CCC/C(C)=C/COc1cccc(/C=C/C(=O)c2ccccc2)c1 [Compound 5, 3-O-geranyl chalcone]
IC50 [1, 5]: 11.8 ± 0.9 µM

Second part, led by results:

IC50 [1, 5]: 5.7 ± 0.8 µM
fold more potent in LOX-1 inhibition than 2-O-prenyl chalcone (4) ([1]; ratio of IC50 values, versus compound 4): > 10 fold
mechanism of inhibition (LOX-1 [2]; LOX-1, enzyme kinetics): competitive
Ki (LOX-1 [2]; increasing concentrations of 6 (5–10 µM), linoleic acid substrate): 7 µM
oxygen consumption during LOX-1 catalysis (LOX-1 [3]; listed as (E)-2-O-farnesyl chalcone): decreased the rate of oxygen consumption
Structure (SMILES): CC(C)=CCC/C(C)=C/CC/C(C)=C/COc1ccccc1/C=C/C(=O)c1ccccc1 [Compound 6, (E)-2-O-farnesyl chalcone]
oxygen consumption during LOX-1 catalysis (LOX-1 [3]): delay of the oxygen consumption; also recorded: lower rate of oxygen consumption

oxygen consumption during LOX-1 catalysis (LOX-1 [3]): lower rate of oxygen consumption
Structure (SMILES): CC(Cc1ccc(O)c(O)c1)C(C)Cc1ccc(O)c(O)c1 (stereo not shown) [Nordihydroguaiaretic acid (NDGA), Nordihydroguaiaretic acid, reference compound]
toxicity on long-term use [4]: liver damage and kidney dysfunction
